The text below walks through data of PMC3751577, “Three-stage biochemical selection: cloning of prototype class IIS/IIC/IIG restriction endonuclease-methyltransferase TsoI from the thermophile Thermus scotoductus” (BMC Molecular Biology, 2013).

Test [1] addresses T1, TsoI (Thermus scotoductus, UniProt T1RQY5).
T1 construct: gene tsoIRM; native (wt) full-length enzyme purified to homogeneity from T. scotoductus; monomer
T1 sequence (T1RQY5 1-1116): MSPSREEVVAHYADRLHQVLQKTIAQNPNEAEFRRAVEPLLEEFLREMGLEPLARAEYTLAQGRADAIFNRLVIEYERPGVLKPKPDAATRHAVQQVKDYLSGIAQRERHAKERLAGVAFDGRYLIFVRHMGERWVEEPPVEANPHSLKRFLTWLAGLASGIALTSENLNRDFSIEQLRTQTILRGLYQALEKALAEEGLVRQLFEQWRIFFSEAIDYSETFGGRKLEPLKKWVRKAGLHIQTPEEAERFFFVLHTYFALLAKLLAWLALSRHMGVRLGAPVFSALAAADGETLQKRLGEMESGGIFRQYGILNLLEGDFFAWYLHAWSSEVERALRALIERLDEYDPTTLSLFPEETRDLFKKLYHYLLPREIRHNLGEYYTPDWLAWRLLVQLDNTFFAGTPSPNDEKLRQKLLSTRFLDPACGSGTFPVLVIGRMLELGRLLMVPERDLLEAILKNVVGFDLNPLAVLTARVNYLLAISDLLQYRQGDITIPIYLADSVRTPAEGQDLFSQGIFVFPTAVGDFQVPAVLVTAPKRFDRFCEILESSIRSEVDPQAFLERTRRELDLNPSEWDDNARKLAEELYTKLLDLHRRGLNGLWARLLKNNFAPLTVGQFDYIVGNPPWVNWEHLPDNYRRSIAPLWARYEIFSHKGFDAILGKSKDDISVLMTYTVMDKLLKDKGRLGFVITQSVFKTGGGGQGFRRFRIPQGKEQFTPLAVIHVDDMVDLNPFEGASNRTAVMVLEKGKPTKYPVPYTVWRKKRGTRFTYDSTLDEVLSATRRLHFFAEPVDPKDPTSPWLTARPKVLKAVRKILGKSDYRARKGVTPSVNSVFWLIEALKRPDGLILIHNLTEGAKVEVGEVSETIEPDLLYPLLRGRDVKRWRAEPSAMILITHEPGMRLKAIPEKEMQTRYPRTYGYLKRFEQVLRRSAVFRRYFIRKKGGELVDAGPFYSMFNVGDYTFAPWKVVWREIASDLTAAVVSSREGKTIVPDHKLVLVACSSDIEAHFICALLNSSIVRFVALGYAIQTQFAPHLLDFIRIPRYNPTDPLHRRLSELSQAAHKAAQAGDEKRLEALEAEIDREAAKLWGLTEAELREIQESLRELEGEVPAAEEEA
Description: DNA cleavage assay on lambda DNA, agarose gel. Type of test: biochemical. As to conditions: activator, putative allosteric; weak stimulation of REase; 50 uM effector; 10 mM MgCl2, pH 7.5, 55°C, 30 min.

Test [2] concerns the target T1, TsoI. Description: DNA cleavage assays on lambda DNA and single-site PCR substrate, agarose gel. Type of test: biochemical. As to conditions: activator, putative allosteric; weak stimulation of REase; 50 uM effector; 10 mM MgCl2, pH 7.5, 55°C, 30 min or 16 h.

Each structure is given as a SMILES string.

Turning to `Nc1ncnc2c1ncn2[C@@H]1O[C@H](CSCC[C@H](N)C(=O)O)[C@@H](O)[C@H]1O` [SAH], the “DNA cleavage assay on lambda DNA, agarose gel” value at TsoI [1] is “activation of REase function by SAM, SIN and SAH is weak, but detectable”.

Consider `C[S+](CC[C@H](N)C(=O)O)C[C@H]1O[C@@H](n2cnc3c(N)ncnc32)[C@H](O)[C@@H]1O` (stereo partly drawn) [SAM], for which the “DNA cleavage assays on lambda DNA and single-site PCR substrate, agarose gel” value on TsoI [2] was “activation of REase function by SAM, SIN and SAH is weak, but detectable”.

On to `Nc1ncnc2c1ncn2[C@@H]1O[C@H](C[C@@H](N)CC[C@H](N)C(=O)O)[C@@H](O)[C@H]1O` [SIN], for which the “DNA cleavage assay on lambda DNA, agarose gel” value at TsoI [1] is “activation of REase function by SAM, SIN and SAH is weak, but detectable”.
